This is an account of results in US9707201B2 (Leptrex Ltd, priority 2013, dated 2017).

Entries after “also recorded” stand apart in the source; their conditions may differ.

Series [1] can be described thus: Thiosulfinate half-life in 100% aqueous garlic extract solution by quantitative HPLC. In kind it is physicochemical. The settings on record: buffer, 100% aqueous solution, mean (SD), n=3, read-out: Half-Life (hours) at 20° C.
Series [2] is described as follows: Thiosulfinate half-life in aqueous ethanol garlic extract solutions by quantitative reverse phase HPLC. It counts as physicochemical. The following applies: buffer, initial allicin 400 ppm, mean (SD), n=3. As for the experimental part: The solutions were prepared from a single stock aqueous garlic extract solution that was diluted with the appropriate volume of ethanol to produce the 25%, 50% and 75% ethanol garlic aqueous extract solutions. The aqueous stock solution of garlic extract assayed by HPLC was determined to have an allicin content of 1600 ppm (1600 mg allicin in 1000 ml water) and each of the 25%, 50% and 75% ethanol:aqueous dilutions prepared from the aqueous garlic extract stock solution were prepared to provide an initial allicin concentration of 400 ppm.
The decomposition profiles of MeS(O)SAll and AllS(O)SMe (the MA-AM mixture collectively referred to as Analogue-1), AllS(O)SAll (Allicin, Analogue-2) and AllS(O)SPn-(E,Z) (Analogue-3) thiosulfinates were then determined by quantitative reverse phase HPLC. The quantitative HPLC procedure involved determining the relative concentrations of each thiosulfinate in the various solutions at the various ageing temperatures as a function of the time that each solution was stored at a carefully controlled temperature. The initial measurement of the concentration value for each thiosulfinate determined immediately after freshly prepared solutions were prepared provides the 100% thiosulfinate concentration value for the start time (time zero) at which the time-lapse thermal decomposition measurements started to commence.
The quantitative HPLC data recorded for the MA-AM mixture (Analogue-1), allicin (Analogue-2) and AllS(O)SPn-(E,Z) (Analogue-3) established that each thiosulfinate was subject to a first-order exponential decay process when the 25%, 50% and 75% aqueous:ethanol garlic extract solutions were stored (aged) through the temperature range 40-20° C. FIGS. 2-4 show exponential decay profiles obtained for MA-AM (Analogue-1), allicin (Analogue-2) and AllS(O)SPn-(E,Z) (Analogue-3)—FIGS. 2-4 produced from data obtained from the HPLC analyses of the same single sample whose solvent composition was ethanol:water (25:75% by volume) with an initial allicin concentration of 400 ppm. The decay profiles were obtained using ORIGIN version 6.1 software (Origin is a registered trade mark of OriginLab Corporation) software that determined the best fit for decomposition profiles as being first-order exponential decay. From the decomposition profiles shown in FIGS. 2-4 it is possible to interpolate to determine the time required for each thiosulfinate to decompose to 50% of its initial concentration level that had been initially measured at the outset when controlled temperature storage started.

A short description of series [3]: Ageing of aqueous FG + P-1 reaction solution at 40° C., thiosulfinate content by HPLC. It counts as physicochemical. The settings on record: for A4 Peak Integration Value × 10^−4: 240 nm. The procedure: Similar studies were conducted with an aqueous solution of analogue 4 (MMTSO) produced by the method of process 6a, as set out in row 4 of table 23.
1. The reaction mixture (12.0 g FG+400 mg P-1+70 ml H2O) was filtered immediately after 4 hour reaction time and served as the stock solution for this study.
2. The filtered solution was divided into 2 portions. One to be stored frozen and the other to be stored at 40° C.
3. The portion of filtered solution to be used to determine the half-life of A4 was placed in a sealed glass bottle that was placed in an oven that provided a stable temperature of 40° C.
4. At irregular intervals a sample of the aqueous solution was withdrawn and analysed by HPLC.
FIGS. 57-60 show the chromatogram obtained after 0, 120, 168 and 672 hours respectively. Their concentrations are set out below in table 32: […]

In series [4] the test system is MRSA clinical isolate QMUL301. The series can be described thus: Standard agar diffusion test, zones of inhibition. In kind it is cell-based, methicillin-resistant Staphylococcus aureus. The settings on record: for Activity of the solution after storage: aqueous solution stored at 17° C. for 56 days. The procedure:
The activity of powders and liquids was determined using standard agar diffusion tests. Susceptibility of isolates by measuring the zones of inhibition around a measured amount of the anti-microbial agent.
Bacteria: MRSA clinical isolate QMUL301 was used. Overnight broth cultures in isosensitest broth were prepared. These were diluted to give a final concentration of 10^5 cfu/ml
Media: Isosensitest agar (Oxoid Ltd).
• A broth containing 10^5 cfu/ml was prepared in peptone water. • 0.2 ml was spread over each isosensitest plate. • Plates were air dried and a 6 mm well cut in the centre of the plate. • A volume of 100 ul of liquid or 100 ug of solid was added to each well. • Plates were incubated overnight at 37° C. • The presence of zones of inhibition around a well is indicative of biological activity being present. No zone around the 6 mm well, (as with the negative control) represented no biological activity.

Series [5] is classed as physicochemical. The following applies: buffer. As for the experimental part: 1. Aqueous solutions were prepared using 70 ml water and 6 g McCormick garlic powder, along with methiin or alliin in the proportions shown in table 37 below. The liquid in the top row was prepared from a blend of the following liquids:
2. All solutions were prepared at a temperature of 21° C. with the garlic powder reaction mixture being stirred for 3 hours. At the end of the 3 hour stirred reaction period, the solutions were filtered and immediately assayed by HPLC for their respective A-1, A-2 and A-4 content. These initial concentration values were considered as Time Zero values. 3. After Time Zero thiosulfinate concentrations had been obtained, the solutions were stored at stable temperatures within accurate temperature regulated ovens. 4. Samples of each temperature stored aqueous solution were withdrawn at appropriate time intervals and assayed by HPLC for A-1, A-2 and A-4 content. The decay of the blended liquid can be seen in FIGS. 64, 65 and 66. […] 5. The decomposition profile graphs for MMTSO, MA-AM and Allicin are shown in FIGS. 67, 68 and 69 respectively. These figures were constructed by expressing their respective HPLC peak area integration values measured at 240 nm as a function of sample storage time to obtain Relative % Concentration values. In all cases the best fit was obtained with MicroCal Origin s/w using a first order exponential decay fit. In FIG. 67, the half-life value was obtained by interpolating the time at which the A-4 (MMTSO) peak provides ½ integral value of that initially obtained for A-4 peak at Time Zero. Half-life for A-4 at 55° C. was determined as 51.1 hrs. Similarly in FIG. 68, the half-life value was obtained by interpolating the time at which A-1 (MA-AM) peak provides ½ integral value of that initially obtained for A-1 peak at Time Zero. Half-life for A-1 was determined as 30.2 hrs. Once again, the half-life value was obtained by interpolating the time at which A-2 (Allicin) peak provides ½ integral value of that initially obtained for A-2 peak at Time Zero. Half-life for A-2 is determined as 9.4 hrs.

The test system of another series is Helicobacter pylori. The settings on record: Canizares et al. 2004; cited from earlier work.
Series [6] relates to herpes simplex virus types 1 and 2, parainfluenza virus type 3 and rhinovirus type 2. The following applies: in vitro, compounds present in garlic extracts; cited from earlier work.
Where [7] appears, read: aqueous solution, 0 hours aged at 40° C.
Setting [8] is: aqueous solution, 120 hours aged at 40° C.
The mark [9] stands for this setting: aqueous solution, 168 hours aged at 40° C.
Where [10] appears, read: aqueous solution, 672 hours aged at 40° C.
Setting [11] is: aqueous solution (12.0 g FG + 400 mg P-1 + 70 ml H2O), 0 hours aged at 40° C.

In general, half-life refers to the time in which the quantity being followed falls by half. For the compound `C=CC[S+]([O-])SC=CC` (stereo not shown), the half-life stood at 140 h in series [1] (initial allicin (A-2) concentration 375 ppm); 77.2 h in series [1] (initial allicin (A-2) concentration 1500 ppm); 134 h in series [2] (25% EtOH, 20° C.); 66.1 h in series [2] (25% EtOH, 25° C.); 39.5 h in series [2] (25% EtOH, 30° C.); 25 h in series [2] (25% EtOH, 35° C.). For the same compound, the half-life in series [2] (25% EtOH, 40° C.) was determined as 15.3 h; in series [2] (50% EtOH, 20° C.) it was 203 h; in series [2] (50% EtOH, 25° C.) it was 121 h; in series [2] (50% EtOH, 30° C.) it was 65.6 h; in series [2] (50% EtOH, 35° C.) it was 28.8 h; in series [2] (50% EtOH, 40° C.), 17.3 h. The half-life was determined as 161 h in series [2] (75% EtOH, 20° C.); 73.4 h in series [2] (75% EtOH, 25° C.); 46.9 h in series [2] (75% EtOH, 30° C.); 30.3 h in series [2] (75% EtOH, 35° C.); 17.6 h in series [2] (75% EtOH, 40° C.).

Turning to `CS[S+](C)[O-]` (stereo not shown) [Analogue A-4, methyl methyl-thiosulfinate], the A-4 ppm in series [3] (aqueous solution (Red Spot), stored at 40° C. for 672 hours) was 1597 ppm. Moreover, the “A4 concentration converted from peak integration value” in series [3] (setting [7]) is recorded as “(=2410 ppm)”. For the same compound, the “A4 Peak Integration Value × 10^−4” value was 1153 in series [3] (setting [7]); 1074 in series [3] (setting [8]); 1004 in series [3] (setting [9]); “(743)” in series [3] (setting [10]); 764 in series [3] (aqueous solution, 672 hours aged at 40° C., listed as A4). In addition, in series [4], the “Activity of the solution after storage” value is recorded as “remains active”. The “Antimicrobial activity against MRSA” value in series [4] (aqueous solutions) is given as “significant antimicrobial activity; also recorded: at least the same level of antimicrobial activity against MRSA as A-2”. The compound also registered a Half-Life hrs in series [5] of 51.1 h.

In the case of “allyl allyl-thiosulfinate [Analogue A-2, reference compound]”, in series [3] (setting [11]), the “concentration (ppm)” value is given as 47 ppm. In the series on Helicobacter pylori, the “Inhibition of the in vitro growth of Helicobacter pylori” value is given as “show inhibition”. Besides, in series [4], the “Activity of the solution after storage” value is on record as “lost all measurable activity”. Besides, the Virucidal activity entry in series [6] is “possess virucidal activity”. The Half-Life hrs in series [5] is 9.4 h.

As for “methyl allyl-thiosulfinate (MA) and its structural isomer allyl methyl-thiosulfinate (AM) [Analogue A-1]”, the “concentration (ppm)” value in series [3] (setting [11]) is reported as 843 ppm; in series [3] (setting [8]), 415 ppm; in series [3] (setting [9]) it was 314 ppm; in series [3] (setting [10]), 35 ppm. Moreover, the Half-Life hrs in series [5] is 30.2 h.
